The data set in a line: Rat pharmacokinetics after intravenous and oral dosing (Example 3). Conditions: Alderley Park Han Wistar; male rat (Han Wistar), oral 2 mg/kg vs intravenous 2 mg/kg, whole blood; read-out: F (bioavailability). Format: in vivo. The method, then:
The rat pharmacokinetic (PK) parameters blood clearance (CL), volume of distribution (Vdss) and half life (t½) are calculated by determining the concentration (exposure) of test compound in whole blood samples taken from rats at various, defined time points subsequent to the intra-venous dosing (administration) of formulated test compound. The rat PK parameter bioavailability (F) is calculated by determining the concentration (exposure) of test compound in whole blood samples taken from rats at various, defined time-points subsequent to the oral dosing (administration) of formulated test compound and then by comparison of the ratio of the dose normalized total oral exposure (AUCpo) with the dose normalized total intra-venous exposure (AUCiv). Fraction absorbed (Fabs) is a secondary PK parameter that is often calculated from a knowledge of the clearance (CL) and bioavailability (F) of a test compound. […]
Calibration standard samples are prepared by addition of known amounts of test compound to blank diluted (1:1) blood samples. […] Following centrifugation, sample and calibration standard supernatants are analysed for test compound concentration by HPLC with MS/MS (triple quad mass spectrometry) detection. Quantification of test compound concentrations in the blood samples taken from the rats is achieved by reference to a standard curve constructed from the calibration standard samples. […]

The values below come from patent publication US20100093795A1, “Piperidine Derivative Used for Treating Chemokine Receptor 5 Mediated Diseases” (priority 2006, published 2010).

With `CCc1nnc(C(C)C)n1C1CCN([C@H](C)C[C@@H](c2cc(F)cc(F)c2)C2CCN(S(C)(=O)=O)CC2)CC1` (single isomer, unassigned), the bioavailability (as a rule, dose-corrected exposure relative to a reference, in per cent) worked out at 28%.
`Cc1nnc(C(C)C)n1C1CCN(C(C)C[C@@H](c2cc(F)cc(F)c2)C2CCN(S(C)(=O)=O)CC2)CC1` (single isomer, unassigned) [Comparator Compound A]: the bioavailability stood at 1%.
